Measurements taken from patent US8357676B2, “Ansamycin formulations and methods of use thereof” (Infinity Discovery, Inc., priority 2006, dated 2013).
≈ marks a conversion by molar mass, not a printed value. Like-named read-outs stand apart in the source and are kept apart here.

What was measured:
[1] = Oral bioavailability of amorphous 17-AG/PVP dispersion vs crystalline 17-AG, single oral capsule dose; type: in vivo; conditions: 15 mg/kg, beagle dogs
Description: A 12% 17-AG/PVP (w/w) dispersion was made utilizing rotary evaporation and characterized for purity, residual solvent level, and amorphous content as described, filled into HPMC capsules and dosed into dogs at a level of 15 mg/kg. Blood was collected pre-dose, at 15 minutes, at 30 minutes, 1 hour, 2 hours, 4 hours, 6 hours, 12 hours, and 24 hours post dose into tubes containing sodium heparin. Collected blood samples were immediately placed on wet ice and refrigerated centrifuge for isolation of plasma within 30 min of collection. Isolated plasma was saved in labeled screw cap freezer vials or eppendorf tubes and stored frozen (−70° C.) until analyzed for plasma 17-AG levels. The design of the study is as follows. A single group of dogs consisting of 2 males & 2 females was utilized for dosing, with a week washout in between each dose.

[2] = Equilibrium solubility in SIF; type: physicochemical; conditions: for Crystalline 17-AG Equilibrium Solubility: average values; for solubility: 37 °C
Description: Solutions were placed at 37° C., and sample aliquots were removed at 24, 48, 72, & 96 hours. Sample aliquots were filtered (0.45 uM PVDF), diluted in SIF/MeOH and measured in triplicate on UV spectrometer.

[3] = In vitro dissolution of amorphous solid dispersions in simulated intestinal fluid at 37° C.; type: physicochemical
Description: […] To each vial was added simulated intestinal fluid (5 mL) and each was shaken at 37° C. […] The samples were then diluted in MeOH and tested using UV method for solution concentration.

[4] = In vivo exposure of various oral formulations of 17-AG, single oral dose; conditions: female beagle dogs
Description: The oral bioavailability of various formulations of the compound 17-AG was investigated by making various oral formulations, dosing beagle dogs and measuring 17-AG levels in blood plasma at various time points following a single oral dose. In addition, the effect of PVP on enhancing exposure was investigated by its addition to many of the tested formulations.
In brief, different crystalline, solvated, and amorphous forms of 17-AG were dosed either as filled capsules or as suspensions. In addition, various 17-AG solutions utilizing a range of different organic, anionic, & non-ionic components were dosed by oral gavage.
The crystalline, solvated, and amorphous forms of 17-AG were made as previously described and blended with either anhydrous lactose or PVP in a Turbula blender for 15 minutes. […]
The nanosuspension was made by levigating crystalline 17-AG by high shear in a microfluidizer (Microfluidics Corp, Model: M-110L) for 10-20 minutes in Tween-80. Mean particle size (d50: […]) was measured by laser light diffraction (Malvern Corp, Mastersizer 2000).
Blood was collected pre-dose, 15, 30 minutes, 1, 2, 4, and 8 hours post-dose into tubes containing sodium heparin. […] Isolated plasma was saved in labeled screw cap freezer vials or eppendorf tubes and stored frozen (−70° C.) until analyzed for plasma 17-AG levels. […]

[5] = Supersaturated levels of 17-AG in SIF pH 6.8 with PVP (DMSO stock diluted 1:100); type: physicochemical; conditions: for 17-AG Supersaturated Concentration: 37° C., average values
Description: Supersaturated levels of 17-AG was measured by adding 17-AG DMSO stock solutions (10, 50, 100, & 200 mg/ml) at a 1:100 dilution to SIF pH 6.8 solutions containing 0%, 0.5%, 1%, 2.5%, & 5% PVP (w/v). […] Solutions were stirred in a dissolution apparatus (Paddle speed 150 RPM, 37° C.), and aliquots of each solution were removed at 15, 30, 60, 120, 240, 360, & 1320 minute time points. Sample aliquots were filtered (0.45 uM PVDF), diluted in SIF/MeOH and measured in triplicate on UV spectrometer. Representative data are found in FIG. 25 and FIG. 26.

[6] = tested on: H1975, a non-small cell lung cancer cell line; test: H1975 mouse xenograph tumor model; type: in vivo, Nu/Nu mice; conditions: 5% DMSO, 75% NS, oral gavage every other day
Description: In the first study, H1975, a non-small cell lung cancer cell line which contains L858R and T790M mutations in EGFR, a client protein for HSP90 was utilized. 5-6 week old Nu/Nu mice were implanted with 10×10e6H1975 cells. Dosing commenced after implanted cells reached ˜150 mm3. Dosing was by oral gavage and the dosing schedule was every other day with vehicle (20% PGHS, 5% DMSO, 75% NS), and 75 mg/kg, and 100 mg/kg 17-AG in vehicle.

[7] = tested on: H1650 lung adenocarcinoma cell line; test: H1650 mouse xenograph tumor model; type: in vivo, Nu/Nu mice; conditions: 50, 75 and 100 mg/kg 17-AG in 15% PVP, 5% EtOH, 80% PG, oral gavage every day
Description: In the second study, H1650 lung adenocarcinoma cell line which contains a mutant form of EGFR (Del E746-A750) was utilized. 5-6 week old Nu/Nu mice were implanted with 10×10e6H1650 cells. Dosing commenced after implanted cells reached ˜100 mm3. Dosing was by oral gavage and the dosing schedule was every day with vehicle (15% PVP, 5% EtOH, 80% PG), and 50 mg/kg, 75 mg/kg, and 100 mg/kg 17-AG in vehicle.

[8] = 12% load analog in PVP K-30 amorphous dispersion, target conc 2 mg/mL, SIF 37° C., t = 5 min
[9] = 12% load analog in PVP K-30 dispersion, SIF 37° C., t = 5 min
[10] = simulated intestinal fluid (SIF), pH 6.8, fassgf or other biorelevant, thermodynamic from solid, read-out: Eq. Solubility of active

CO[C@H]1/C=C\C=C(/C)C(=O)NC2=CC(=O)C(N)=C(C[C@@H](C)C[C@H](OC)[C@H](O)[C@@H](C)/C=C(\C)[C@@H]1OC(N)=O)C2=O [Crystalline 17-AG, 17-amino-geldanamycin]
exposure / oral bioavailability (in words) ([1]; single oral capsule): very low oral bioavailability | Plasma levels of 17-AG following dosing ([1]; uncoated HPMC capsule): below quantifiable limits | Crystalline 17-AG Equilibrium Solubility ([2]; SIF pH 6.8, 0% PVP, 37° C.): 4.1 µg/mL | Crystalline 17-AG Equilibrium Solubility ([2]; SIF pH 6.8, 0.5% PVP, 37° C.): 5.9 µg/mL | Crystalline 17-AG Equilibrium Solubility ([2]; SIF pH 6.8, 1.0% PVP, 37° C.): 6.5 µg/mL | Crystalline 17-AG Equilibrium Solubility ([2]; SIF pH 6.8, 2.5% PVP, 37° C.): 8.7 µg/mL | increase of equilibrium solubility of crystalline 17-AG ([2]; SIF pH 6.8, 5% PVP vs 0% PVP): ~3 fold | Crystalline 17-AG Equilibrium Solubility ([2]; SIF pH 6.8, 5.0% PVP, 37° C.): 11.2 µg/mL

CO[C@H]1/C=C\C=C(/C)C(=O)NC2=CC(=O)C(NC(C)=O)=C(C[C@@H](C)C[C@H](OC)[C@H](O)[C@@H](C)/C=C(\C)[C@@H]1OC(N)=O)C2=O [17-acetyl-AG, 17-acetylgeldanamycin]
Supersaturated concentration of analog/polymer dispersions in SIF at 37° C. (t = 5 min) [3, 8]: 1.568 mg/ml | Fold increase relative to equilibrium solubility [3, 9]: ≥ 5 x | solubility [2, 10]: 350 µg/mL (≈ 596 µM)

CO[C@H]1/C=C\C=C(/C)C(=O)NC2=CC(=O)C(N)=C(C[C@@H](C)C[C@H](OC)[C@H](O)[C@@H](C)/C=C(\C)[C@@H]1OC(N)=O)C2=O [amorphous 17-AG, 17-amino-geldanamycin]
exposure after oral dosing (in words) [4]: significant exposure

CO[C@H]1C[C@H](C)CC2=C(N)C(=O)C=C(NC(=O)/C(C)=C/C=C\[C@H](OC)[C@@H](OC(N)=O)/C(C)=C/[C@H](C)C1OC(C)=O)C2=O (stereo partly drawn) [11-acetyl-17-AG, 11-acetyl-17-aminogeldanamycin]
Supersaturated concentration of analog/polymer dispersions in SIF at 37° C. (t = 5 min) [3, 8]: 0.167 mg/ml | Fold increase relative to equilibrium solubility [3, 9]: 2 x | solubility [2, 10]: 88 µg/mL (≈ 150 µM)

CO[C@H]1/C=C\C=C(/C)C(=O)NC2=CC(=O)C(NCCF)=C(C[C@@H](C)C[C@H](OC)[C@H](O)[C@@H](C)/C=C(\C)[C@@H]1OC(N)=O)C2=O [17-fluoroethyl-AG, 17-(fluoroethyl)aminogeldanamycin]
Supersaturated concentration of analog/polymer dispersions in SIF at 37° C. (t = 5 min) [3, 8]: 0.234 mg/ml | Fold increase relative to equilibrium solubility [3, 9]: 5 x | solubility [2, 10]: 40 µg/mL (≈ 67.6 µM)

COC1CC(C)CC2=C(N)C(=O)C=C(NC(=O)C(C)=CC=CC(OC)C(OC(N)=O)C(C)=CC(C)C1=O)C2=O (stereo not drawn) [11-oxo-17-AG, 11-oxo-17-aminogeldanamycin]
Supersaturated concentration of analog/polymer dispersions in SIF at 37° C. (t = 5 min) [3, 8]: 0.395 mg/ml | Fold increase relative to equilibrium solubility [3, 9]: 0 x | Eq. Solubility of active ([2]; pH 6.8): 330 µg/mL

CO[C@H]1/C=C\C=C(/C)C(=O)NC2=CC(=O)C(N)=C(C[C@@H](C)C[C@H](OC)[C@H](O)[C@@H](C)/C=C(\C)[C@@H]1OC(N)=O)C2=O [17-AG, 17-amino-geldanamycin]
Supersaturated concentration of analog/polymer dispersions in SIF at 37° C. (t = 5 min) [3, 8]: 0.712 mg/ml | Fold increase relative to equilibrium solubility [3, 9]: 200 x | solubility ([2]; simulated intestinal fluid (SIF), pH 6.8, fassgf or other biorelevant, thermodynamic from solid): 4 µg/mL (≈ 7.33 µM) | solubility thermodynamic ([2]; simulated intestinal fluid (SIF), pH 6.8, fassgf or other biorelevant, thermodynamic from solid, SIF, 37° C., read-out: Equilibrium solubility of 17-AG in SIF @ 37° C.): 4 µg/mL (≈ 7.33 µM) | time at which 17-AG starts to precipitate out ([5]; 1.0 mg/ml solution in 5% PVP): 120 min | 17-AG Supersaturated Concentration ([5]; SIF pH 6.8, 0% PVP): 0.5 mg/mL | 17-AG Supersaturated Concentration ([5]; SIF pH 6.8, 0.5% PVP): 0.6 mg/mL | 17-AG Supersaturated Concentration ([5]; SIF pH 6.8, 1.0% PVP): 0.7 mg/mL | increase of degree of supersaturation of 17-AG ([5]; SIF pH 6.8, 5% PVP vs 0% PVP): ~2 fold | 17-AG Supersaturated Concentration ([5]; SIF pH 6.8, 5.0% PVP): 0.9 mg/mL | time at which 17-AG starts to precipitate and come out of solution ([5]; SIF without PVP): approximately 120 minutes | reduction in tumor volume as compared to vehicle treated animals ([6]; 75 mg/kg 17-AG in 20% PGHS): ~35% | reduction in tumor volume as compared to vehicle treated animals ([6]; 100 mg/kg 17-AG in 20% PGHS): ~70% | maximum reduction in tumor volume as compared to vehicle treated animals [7]: 62%

CO[C@H]1/C=C\C=C(/C)C(=O)NC2=CC(=O)C(N3CCC3)=C(C[C@@H](C)C[C@H](OC)[C@H](O)[C@@H](C)/C=C(\C)[C@@H]1OC(N)=O)C2=O [17-azetidinyl-G, 17-azetidinylgeldanamycin]
Supersaturated concentration of analog/polymer dispersions in SIF at 37° C. (t = 5 min) [3, 8]: 0.167 mg/ml | Fold increase relative to equilibrium solubility [3, 9]: 0 x | solubility [2, 10]: 140 µg/mL (≈ 239 µM)

CO[C@H]1/C=C\C=C(/C)C(=O)NC2=CC(=O)C(NCc3ccccc3)=C(C[C@@H](C)C[C@H](OC)[C@H](O)[C@@H](C)/C=C(\C)[C@@H]1OC(N)=O)C2=O [17-benzyl-AG, 17-benzylaminogeldanamycin]
Supersaturated concentration of analog/polymer dispersions in SIF at 37° C. (t = 5 min) [3]: 0.165 mg/ml (10x) | Supersaturated concentration in SIF at 5 min ([3]; 12% load analog in PVP K-30 dispersion, SIF 37° C., t = 5 min, the values are: supersaturated concentration in SIF at 5 min): 0.165 mg/mL | solubility [2, 10]: 15 µg/mL (≈ 23.6 µM)

CO[C@H]1/C=C\C=C(/C)C(=O)NC2=CC(=O)C(N)=C(C[C@@H](C)C[C@H](OC)[C@H](O)[C@@H](C)/C=C(\C)[C@@H]1OC(N)=O)C2=O [EtOAc Solvate of 17-AG, 17-amino-geldanamycin]
exposure after oral dosing (in words) [4]: low exposure

CO[C@H]1/C=C\C=C(/C)C(=O)NC2=CC(=O)C(NCC3CC3)=C(C[C@@H](C)C[C@H](OC)[C@H](O)[C@@H](C)/C=C(\C)[C@@H]1OC(N)=O)C2=O [17-cyclopropylmethyl-AG, 17-cyclopropylmethylaminogeldanamycin]
Supersaturated concentration of analog/polymer dispersions in SIF at 37° C. (t = 5 min) [3, 8]: 0.0573 mg/ml | Fold increase relative to equilibrium solubility [3, 9]: 2 x | solubility [2, 10]: 34 µg/mL (≈ 56.7 µM)
